Laboratory results from patent US20260258048A1, “LACTAM-CONTAINING IMIDAZOPYRIDAZINE IL-17 INHIBITOR COMPOUNDS” (Janssen Pharmaceutica NV, priority 2023, published 2026).

How the values were obtained:
[1] = test system: IL-17A-induced G-CSF production in human normal keratinocyte (NHK); experiment: NHK assay: IL-17A-induced G-CSF production in normal human keratinocytes; type: cell-based; conditions: 24 h, IL-17A 5 ng/mL
Outline: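 Adult keratinocytes at 3000-4000 cells/well; recombinant human IL-17A pre-incubated 1 h at rt with titrated compound, then added to cells (final 5 ng/mL IL-17A, 0.2% DMSO, 5% FBS) for 24 h at 37 °C. Supernatant G-CSF quantified by HTRF against a standard curve to give IC50; viability checked by CellTiter-Glo versus DMSO.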

[2] = molecular target: IL-17A(FLAG-tagged): IL-17RA(His-tagged) (Homo sapiens, UniProt Q16552, K93Q); experiment: IL-17A(FLAG-tagged): IL-17RA(His-tagged) binding disruption Eu-HTRF assay
Sequence of UniProt Q16552 (Q16552 with tags, fused parts or gaps K93Q): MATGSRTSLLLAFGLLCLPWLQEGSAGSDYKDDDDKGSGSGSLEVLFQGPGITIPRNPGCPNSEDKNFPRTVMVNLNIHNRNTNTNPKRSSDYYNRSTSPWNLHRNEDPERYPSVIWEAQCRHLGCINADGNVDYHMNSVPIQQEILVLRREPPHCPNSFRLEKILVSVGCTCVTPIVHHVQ
Source text: IL-17A(FLAG-tagged): IL-17RA(His-tagged) binding disruption Eu-HTRF assay An antibody directed against the FLAG tag of IL-17A (SEQ ID NO: 1) is labeled with the HTRF donor chromophore (Europium-cryptate). IL-17A is present as a dimer that is “locked into” this quaternary structure due to the formation of loop-spanning intramolecular disulfide bridges. The construct of IL-17RA used in the assay excludes the […] portion of the receptor and is fused to a C-terminal 10×His tag (SEQ ID NO:2). An antibody directed against the His tag of the IL-17RA chimera is labeled with the HTRF acceptor chromophore (“D2”). The fluorescence-resonance energy transfer (FRET) depends on the vicinity of the donor chromophore to the acceptor, and interruption of the binding between the IL-17A and IL-17RA causes the reduction/loss of FRET. Therefore, this assay allows to evaluate the compound effect on the binding IL-17A and IL-17RA by monitoring the fluorescence intensity of donor vs acceptor. The assay is run as described below.
40 nl of 2-fold serial diluted compound solution for total 22 dilution points is added into each well of a 1536-well, white, low-volume, non-binding plate (Greiner #782904), then 2 μl of FLAG tagged IL-17A at 2× final concentration (1 μM) in solution of PBS+0.01% Triton-X100 is added to each well. The assay plate is briefly centrifuged then incubated for 1 h at rt. A mixed solution is prepared containing 2×5 nM 10HIS×IL-17RA, 2×2.5 nM Eu-anti-FLAG (CISBIO), 2×5 nM D2-anti-HIS (CISBIO) in PBS+0.01% Triton-X100+200 mM Potassium Fluoride (Sigma 60238) and 2 μl of mix is added to each well of the assay plate. The plate is briefly centrifuged then incubated for 2 h at rt. The HTRF intensities at the wavelength of donor (615 nm) and acceptor (665 nm) are measured using BMG Pherastar. The ratio between intensities at two wavelengths is calculated and plotted against the compound concentration and the data is fitted to a one-site competition model to yield IC50 of the compound.

[3] = Homo sapiens, Keratinocyte, class of the average IC50 where tested more than once
[4] = class of the average IC50 where tested more than once

| SMILES | IC50 [1, 3] [nM] | IC50 [2, 4] [nM] | IC50 [1, 4] [nM] | IC50 ([1]; Homo sapiens, Keratinocyte, value in brackets, Table 4) [nM] | potency increase in the HTRF IC50 when compared to its C-3 epimer ([2]; (S)-configuration on C-3 (cis) vs (R)-epimer (trans): Example 51 vs 52, Example 59 vs 60) | IC50 ([2]; value in brackets, Table 4) [nM] |
| --- | --- | --- | --- | --- | --- | --- |
| C[C@H](c1cnn2cc([C@@H](NC(=O)c3nonc3C3CC3)C3CCC(F)(F)CC3)nc2c1)[C@H]1C[C@@H](C(F)(F)F)NC1=O (relative stereo) [Example 79, 4-Cyclopropyl-N—((S)-(4,4-difluorocyclohexyl)(7-((S*)—1-((3R*,5S)-2-oxo-5-(trifluoromethyl)pyrrolidin-3-yl)ethyl)imidazo[1,2-b]pyridazin-2-yl)methyl)-1,2,5-oxadiazole-3-carboxamide] | < 400 | < 400 |  |  |  |  |
| CC1(Cc2cnn3cc([C@@H](NC(=O)c4nonc4C4CC4)C4CCC(F)(F)CC4)nc3c2)CCNC1=O (single isomer, unassigned) [Example 54, 4-Cyclopropyl-N—((S)-(4,4-difluorocyclohexyl)(7-(((S*)-3-methyl-2-oxopyrrolidin-3-yl)methyl)imidazo[1,2-b]pyridazin-2-yl)methyl)-1,2,5-oxadiazole-3-carboxamide] |  | 400 to 4000 | > 4000 |  |  |  |
| CC[C@@H](c1cnn2cc([C@@H](NC(=O)c3nonc3C3CC3)C3CCC(F)(F)CC3)nc2c1)[C@@H]1C[C@@H](C(F)(F)F)NC1=O (relative stereo) [Example 20, 4-Cyclopropyl-N—((S)-(4,4-difluorocyclohexyl)(7-((R*)-1-((3S*,5S)-2-oxo-5-(trifluoromethyl)pyrrolidin-3-yl)propyl)imidazo[1,2-b]pyridazin-2-yl)methyl)-1,2,5-oxadiazole-3-carboxamide] | 400 to 4000 | 400 to 4000 |  |  |  |  |
| O=C(N[C@H](c1cn2ncc(CC3CCNC3=O)cc2n1)C1CCC(F)(F)CC1)c1nonc1C1CC1 (single isomer, unassigned) [Example 22, 4-Cyclopropyl-N—[(S)-(4,4-difluorocyclohexyl)-[7-[[(3S*)-2-oxopyrrolidin-3-yl]methyl]imidazo[1,2-b]pyridazin-2-yl]methyl]-1,2,5-oxadiazole-3-carboxamide] |  | > 4000 | > 4000 |  |  |  |
| CC(C)(CC[C@H](NC(=O)c1nonc1C1CC1)c1cn2ncc(CC3C[C@@](C)(C(F)(F)F)NC3=O)cc2n1)C(F)(F)F (single isomer, unassigned) [Example 58, 4-Cyclopropyl-N—((S)-5,5,5-trifluoro-4,4-dimethyl-1-(7-(((3R*,5S)-5-methyl-2-oxo-5-(trifluoromethyl)pyrrolidin-3-yl)methyl)imidazo[1,2-b]pyridazin-2-yl)pentyl)-1,2,5-oxadiazole-3-carboxamide] |  | < 400 | 400 to 4000 |  |  |  |
| O=C(N[C@H](c1cn2ncc([C@@H](O)[C@H]3C[C@@H](C(F)(F)F)NC3=O)cc2n1)C1CCC(F)(F)CC1)c1nonc1C1CC1 [Example 74] | < 400 | < 400 |  |  |  |  |
| C[C@]1(Cc2cnn3cc([C@@H](NC(=O)c4nonc4C4CC4)C4CCC(F)(F)CC4)nc3c2)C[C@@H](C(F)(F)F)NC1=O (single isomer, unassigned) [Example 97] | < 400 | < 400 |  |  |  |  |
| COc1nonc1C(=O)N[C@@H](CCC(C)(C)C(F)(F)F)c1cn2ncc(CC3C[C@@H](C(F)(F)F)NC3=O)cc2n1 (single isomer, unassigned) [Example 6, 4-Methoxy-N-[(1S)-5,5,5-trifluoro-4,4-dimethyl-1-[7-[[(3S*,5S)-2-oxo-5-(trifluoromethyl)pyrrolidin-3-yl]methyl]imidazo[1,2-b]pyridazin-2-yl]pentyl]-1,2,5-oxadiazole-3-carboxamide] |  | < 400 | < 400 |  |  |  |
| CC(C)(CC[C@H](NC(=O)c1nonc1C1CC1)c1cn2ncc([C@H](O)[C@H]3C[C@@H](C(F)(F)F)NC3=O)cc2n1)C(F)(F)F (relative stereo) [Example 65, 4-Cyclopropyl-N—((S)-5,5,5-trifluoro-1-(7-((R*)-hydroxy((3R*,5S)-2-oxo-5-(trifluoromethyl)pyrrolidin-3-yl)methyl)imidazo[1,2-b]pyridazin-2-yl)-4,4-dimethylpentyl)-1,2,5-oxadiazole-3-carboxamide] | < 400 | < 400 |  |  |  |  |
| O=C(N[C@H](c1cn2ncc([C@H](O)[C@H]3C[C@@H](C(F)(F)F)NC3=O)cc2n1)C1CCC(F)(F)CC1)c1nonc1C1CC1 (relative stereo) [Example 77, 4-Cyclopropyl-N—((S)-(4,4-difluorocyclohexyl)(7-((R*)-hydroxy((3R*,5S*)-2-oxo-5-(trifluoromethyl)pyrrolidin-3-yl)methyl)imidazo[1,2-b]pyridazin-2-yl)methyl)-1,2,5-oxadiazole-3-carboxamide] | 400 to 4000 | > 4000 |  |  |  |  |
| CC1(Cc2cnn3cc([C@@H](NC(=O)c4nonc4C4CC4)C4CCC(F)(F)CC4)nc3c2)CCNC1=O (single isomer, unassigned) [Example 53, 4-Cyclopropyl-N—((S)-(4,4-difluorocyclohexyl)(7-(((R*)-3-methyl-2-oxopyrrolidin-3-yl)methyl)imidazo[1,2-b]pyridazin-2-yl)methyl)-1,2,5-oxadiazole-3-carboxamide] |  | 400 to 4000 | 400 to 4000 |  |  |  |
| O=C(N[C@H](c1cn2ncc(CC3CC4(CC4)NC3=O)cc2n1)C1CCC(F)(F)CC1)c1nonc1C1CC1 (stereo partly drawn) [Example 62, 4-Cyclopropyl-N-((1S)-(4,4-difluorocyclohexyl)(7-((5-oxo-4-azaspiro[2.4]heptan-6-yl)methyl)imidazo[1,2-b]pyridazin-2-yl)methyl)-1,2,5-oxadiazole-3-carboxamide] | > 4000 | 400 to 4000 |  |  |  |  |
| CC(C)[C@@H]1C[C@@H](Cc2cnn3cc([C@@H](NC(=O)c4nonc4C4CC4)C4CCC(F)(F)CC4)nc3c2)C(=O)N1 (relative stereo) [Example 95, 4-Cyclopropyl-N—[(S)-(4,4-difluorocyclohexyl)-[7-[[(3R*,5S*)-5-isopropyl-2-oxo-pyrrolidin-3-yl]methyl]imidazo[1,2-b]pyridazin-2-yl]methyl]-1,2,5-oxadiazole-3-carboxamide] | > 4000 | 400 to 4000 |  |  |  |  |
| O=C(N[C@H](c1cn2ncc(C[C@H]3C[C@@H](C(F)(F)F)NC3=O)cc2n1)C1CCC(F)(F)CC1)c1nonc1C1CC1 [Example 59, 4-Cyclopropyl-N—[(S)-(4,4-difluorocyclohexyl)-[7-[[(3S,5S)-2-oxo-5-(trifluoromethyl)pyrrolidin-3-yl]methyl]imidazo[1,2-b]pyridazin-2-yl]methyl]-1,2,5-oxadiazole-3-carboxamide] | < 400 | < 400 |  | 7.8 | more than 80 fold | 14 |
| O=C(N[C@H](c1cn2ncc(C[C@@H]3C(=O)NCC[C@@H]3C(F)(F)F)cc2n1)C1CCC(F)(F)CC1)c1nonc1C1CC1 (relative stereo) [Example 45, 4-Cyclopropyl-N—((S)-(4,4-difluorocyclohexyl)(7-(((3S*,4S*)-2-oxo-4-(trifluoromethyl)piperidin-3-yl)methyl)imidazo[1,2-b]pyridazin-2-yl)methyl)-1,2,5-oxadiazole-3-carboxamide] | > 4000 | 400 to 4000 |  |  |  |  |
| C[C@H]1CNC(=O)[C@H]1Cc1cnn2cc([C@@H](NC(=O)c3nonc3C3CC3)C3CCC(F)(F)CC3)nc2c1 (relative stereo) [Example 86, 4-Cyclopropyl-N—[(S)-(4,4-difluorocyclohexyl)-[7-[[(3S*,4R*)-4-methyl-2-oxo-pyrrolidin-3-yl]methyl]imidazo[1,2-b]pyridazin-2-yl]methyl]-1,2,5-oxadiazole-3-carboxamide] | > 4000 | 400 to 4000 |  |  |  |  |
| O=C(N[C@H](c1cn2ncc(C[C@H]3C[C@@H](C(F)(F)F)NC3=O)cc2n1)C1CCC(F)(F)CC1)c1nonc1C1CC1 (relative stereo) [Example 71, 4-Cyclopropyl-N—((S)-(4,4-difluorocyclohexyl)(7-(((3S*,5S*)-2-oxo-5-(trifluoromethyl)pyrrolidin-3-yl)methyl)imidazo[1,2-b]pyridazin-2-yl)methyl)-1,2,5-oxadiazole-3-carboxamide] | > 4000 | 400 to 4000 |  |  |  |  |
